Assay results taken from patent publication US11318135B2 (priority 2020, dated 2022).
“Also recorded” adds a separate entry of the source. Where two headings read alike, the source gives them in different places.

How the values were obtained:
SARS-CoV-2 = assay type: cell-based, SARS-CoV-2 (nCoV-2019BetaCoV/Wuhan/WIV04/2019 strain)
SARS coronavirus = assay type: in vivo, A129 mice; conditions: for Death rate: once daily from 4 h to 144 h after challenge, 1*10^6 PFU; for Protection of SARS coronavirus-infected mice from death: intraperitoneal once a day from 4 hours after challenge, 50-200 mg/kg
Vero E6 cells = conditions: Vero E6, 48 h
EBOV-Zaire type [1] = conditions: virus titer in supernatant, Vero E6 cell line, read-out: half-inhibitory concentration (IC50); cited from earlier work
[2] = 300 mg/kg/d from day 6 to day 13, cited from earlier work
Vero C1008 cells = conditions: high concentration of 1.95 g/L; cited from earlier work
EBOV-Zaire type [3] = conditions: drug concentration of above 62.5 mg/L; cited from earlier work
[4] = cited from earlier work

NC(=O)c1nc(F)cnc1O [Favipiravir, 6-fluoro-3-hydroxypyrazine-2-carboxamide]
Reduction of viral RNA load in the cells (SARS-CoV-2): the inhibitory activity is dose-dependent
Inhibition of replication of the SARS-CoV-2 virus genome in the infected supernatant (SARS-CoV-2; at concentrations of 100 μM, 33 μM, 11.1 μM and 3.7 μM): could effectively inhibit
Reduction of viral nucleic acid load in cells infected by SARS-CoV-2 (SARS-CoV-2; at micromolar concentration level): can reduce the viral nucleic acid load
Death rate (SARS coronavirus; 50 mg/kg intraperitoneal): 100%
Death rate (SARS coronavirus; 100 mg/kg intraperitoneal): 50%
Death rate (SARS coronavirus; 200 mg/kg intraperitoneal): 0%
Protection of SARS coronavirus-infected mice from death (SARS coronavirus): can effectively protect mice; also recorded: the survival rate is dose-dependent
Protection of SARS coronavirus-infected mice from death (SARS coronavirus; listed as compound represented by Formula I): significant protective effect
Cell viability (% of vehicle control) (Vero E6 cells; 0.14 μM): 101.61 ± 0.74 % of vehicle control
Cell viability (% of vehicle control) (Vero E6 cells; 0.41 μM): 101.38 ± 3.85 % of vehicle control
Cell viability (% of vehicle control) (Vero E6 cells; 1.23 μM): 98.57 ± 1.90 % of vehicle control
Cell viability (% of vehicle control) (Vero E6 cells; 3.70 μM): 99.09 ± 4.91 % of vehicle control
Cell viability (% of vehicle control) (Vero E6 cells; 11.11 μM): 96.42 ± 4.77 % of vehicle control
Cell viability (% of vehicle control) (Vero E6 cells; 33.33 μM): 95.21 ± 4.43 % of vehicle control
Cell viability (% of vehicle control) (Vero E6 cells; 100 μM): 96.37 ± 1.26 % of vehicle control
IC50 (EBOV-Zaire type [1]): 67 µM
protection rate ([2]; challenge dose of 100% death of placebo group): 100%
body weight, glutamic-pyruvic transaminase, glutamic-oxalic transaminase, viremia [2]: improved significantly
Cytotoxicity to Vero C1008 cells (Vero C1008 cells): not cytotoxic
Inhibition of cytopathic effect (CPE) of EBOV-Zaire type (EBOV-Zaire type [3]): completely inhibit
mice protected from death ([4]; intragastric 300 mg/kg/d (2 times/d, 150 mg/kg per time) from 1 h after challenge for 14 days): 100%
body weight of the mice in the administration group ([4]; intragastric 300 mg/kg/d for 14 days): significantly improved
